Key:
[1] = test system: Human Colon Carcinoma LoVo DX Cells; assay: Growth of subcutaneous solid tumor of LoVo DX cells in mice; assay type: in vivo, Balb/c mice; conditions: treated group, (SEM); for Tumor volume: SN-38 4.5 mg/kg in 20% SBECD i.p. twice daily; for Tumor volume increase: relative to day 0 of treatment
Text: Lovo Dx cells (2.5×10^6 cells per an injection) in culture medium with 30% Matrigel were subcutaneously inoculated at 2 sides of the flank (in the mid-flank) of each of 15 Balb/c mice. 20 days after inoculation the animals were randomly divided into 2 groups: control (8 mice) and treated (7 animals). On day 21, 24, 27 and 30 after inoculation (days 1, 4, 7, and 10 of treatment), twice daily, at 10 am and at 4 pm, the animals received intraperitoneal injections. Control animals received each time injection of 0.49 mL of 0.9% saline. Treated animals received each time injection of SN-38 solution in 20% SBECD (w/w), 4.5 mg/kg of SN-38. The SN-38 solution for the treatment was prepared by the dilution of concentrated composition of the Example 1 with water. Tumor sizes and body weight of each animal was monitored during treatment. The results represented as average tumor volume estimated from measurements of tumor diameters (V=0.5*D1*D2*D2, where Dl and D2 are longer and shorter diameter of the tumor) are presented in Table 7 below (the standard error of mean is in parentheses).

[2] = Dissolution of SN-38 in aqueous SBECD at 100° C. (HPLC); assay type: physicochemical; conditions: boiling water bath 1 hour, 24 hours room temperature
Description: 37.6 mL water was added to 62.4 g sodium sulfobutyl ether beta-cyclodextrin (having a substitution level of about 7, as determined by NMR, and a water content of 3.9%, as determined by Karl-Fisher method), and was mixed until homogenous. The resulting viscous liquid was filtered through a 0.2 micrometer nylon filter to produce 60% (w/w) clear aqueous solution of SBECD. The density of this solution was 1.29 g/mL.
2 mg of SN-38 was added to 4g of such 60% (w/w) aqueous SBECD, and the mixture heated in a boiling water bath for 1 hour, allowed to cool and kept at room temperature for 24 hours, and then filtered through a 0.2 micrometer nylon filter with a 1 micrometer glass fiber prefilter. A clear yellow viscous liquid was produced.
Aliquots of the resultant SN-38 composition in aqueous SBECD were diluted 6 times with water, and further diluted with 10% (w/w) aqueous SBECD to obtain samples having a concentration suitable for HPLC analysis. The samples were analyzed by HPLC using column Symmetry Shield C18 3.5 μ, 50×4.6 mm (Waters), water (0.1% TFA)—acetonitrile (0.1% TFA) gradient and UV detection at 225 nm and 260 nm. The concentrations of SN-38 in the samples were determined by comparison of the area under the peak with the results obtained from analysis of standard solutions.
4 g samples of aqueous SBECD having a concentration of 20%, 30%, 40%, 50% and 60% (w/w), respectively, were mixed with 2 mg of SN-38. The mixtures were heated in boiling water bath for 1 hour and then were kept for 24 hours at room temperature. The mixtures were then filtered through a 0.2 micrometer nylon filter and analyzed by HPLC as described in Example 1.

With `CCc1c2c(nc3ccc(O)cc13)-c1cc3c(c(=O)n1C2)COC(=O)[C@]3(O)CC` [SN-38, (4S)-4,11-Diethyl-4,9-dihydroxy-1H-pyrano[3′,4′:6,7]indolizino[1,2-b]quinoline-3,14(4H,12H)dione] the Tumor volume ([1]; day 0 of treatment) was 0.123 (0.010) cm^3, the Tumor volume ([1]; day 4 of treatment) was 0.128 (0.010) cm^3 and the Tumor volume ([1]; day 6 of treatment) was 0.140 (0.011) cm^3. For the same molecule, the Tumor volume ([1]; day 8 of treatment) was 0.142 (0.012) cm^3, the Tumor volume ([1]; day 11 of treatment) was 0.163 (0.017) cm^3 and the Tumor volume ([1]; day 13 of treatment) was 0.185 (0.019) cm^3. The Tumor volume ([1]; day 15 of treatment) was 0.195 (0.020) cm^3, the Tumor volume ([1]; day 18 of treatment) was 0.217 (0.024) cm^3 and the Tumor volume ([1]; day 20 of treatment) was 0.284 (0.040) cm^3. For the same molecule, the Tumor volume ([1]; day 22 of treatment) was 0.349 (0.055) cm^3, the Tumor volume increase ([1]; day 0) was 100 Percentage and the Tumor volume increase ([1]; day 4) was 105 (4) Percentage. The Tumor volume increase ([1]; day 6) was 115 (6) Percentage, the Tumor volume increase ([1]; day 8) was 117 (7) Percentage and the Tumor volume increase ([1]; day 11) was 133 (11) Percentage. The Tumor volume increase ([1]; day 13) was 150 (10) Percentage, the Tumor volume increase ([1]; day 15) was 157 (10) Percentage and the Tumor volume increase ([1]; day 18) was 175 (12) Percentage. For the same molecule, the Tumor volume increase ([1]; day 20) was 224 (22) Percentage, the Tumor volume increase ([1]; day 22) was 271 (29) Percentage and the SN-38 concentration ([2]; 20% SBECD) was 0.03 mg/g of solution. For the same molecule, the SN-38 concentration ([2]; 30% SBECD) was 0.07 mg/g of solution, the SN-38 concentration ([2]; 40% SBECD) was 0.13 mg/g of solution and the SN-38 concentration ([2]; 50% SBECD) was 0.23 mg/g of solution. For the same molecule, the SN-38 concentration ([2]; 60% SBECD) was 0.40 mg/g of solution and the “concentration of SN-38 in the product solution” value ([2]; Example 1: 60% (w/w) aqueous SBECD, filtered) was 0.40 mg/g of composition.
